Source: patent US20250002467A1, “DESIGN, SYNTHESIS AND MECHANISMS OF ANTICANCER ACTIVITY OF NEW ACETYLATED 5-AMINOSALICYLATE-THIAZOLINONE HYBRID DERIVATIVES” (University of Sharjah, priority 2023, published 2025)

Experiments:
Format in all cases: cell-based
MCF7 cells [1] = assay: Transcriptomic analysis of HH33-treated MCF7 cells
Procedure: (§1) RNA extraction was carried out followed by cDNA synthesis using SuperScript VILO cDNA Synthesis kit (Invitrogen, Waltham, MA, USA) and amplification using Ion AmpliSeq gene expression core panel primers. The prepared library was purified using Agencourt AMPure XP beads (Beckman Coulter, California, USA) and quantified using Ion Library TaqMan™ Quantitation Kit (Applied Biosystems, Waltham, MA, USA). The libraries were further diluted to […] and pooled equally with four individual samples per pool. The pooled libraries were amplified using emulsion PCR on Ion OneTouch™ 2 instrument (OT2) and the enrichment was performed on Ion OneTouch™ ES following the manufacturer's instruction. Thus, prepared template libraries were then sequenced with Ion S5 XL Semiconductor sequencer using the Ion 540™ Chip. RNA-seq data were analyzed using Ion Torrent Software Suite version 5.4 and the alignment was carried out using modifications of the Torrent Mapping Alignment Program (TMAP) optimizing it for aligning the raw sequencing reads against reference sequence derived from hgl9 (GRCh37) assembly. The specificity and sensitivity was maintained by implementing a two-stage mapping approach by employing BWA-short, BWA-long, SSAHA [31], Super-maximal Exact Matching and Smith Waterman algorithm for optimal mapping. Raw read counts of the targeted genes were performed using Samtools (Samtools view —c -F 4-L bed_file bam_file) and the number of expressed transcripts was confirmed after Fragments Per Kilobase Million (FPKM) normalisation. Differentially expressed gene (DEG) analysis was performed using a script written in R programming language (version 3.6.3) with function calls to DESeq2 package from Bioconductor library sets. Raw read counts from RNASeq were normalized using quantile normalization. All counts ranked “0” were excluded. Differentially expressed genes between the two set of cell lines [HH33-treated (n=3), and untreated (n=3)] were assessed using 2 tailed t-test. Differentially expressed genes with p-value of <0.05, adjusted p-value<0.8 and 5-fold difference were included for pathway analysis using Metascape.

HeLa cells = assay: Cell cycle analysis by flow cytometry, HeLa; settings: 1 μM, peak at 24 hours, Control 36.9%
Procedure: (§2) The effect of the HH32 and HH33 compounds on the distribution of cell cycle at different time points (2, 4, 8, 24, 48, and 72 hours) was analyzed using flow cytometry. Briefly, the cells were harvested and fixed in 70% ethanol for 24 hours at −20° C. The fixed cells were treated with RNAase […] (Sigma Aldrich, Missouri, USA) and stained with propidium iodide […] (Sigma Aldrich, Missouri, USA). The data were acquired using BD Accuri C6 flow cytometer (Becton Dickenson, San Jose, CA, USA) and analysis was done using Flow Jo software (Tree Star, Inc, Ashland, OR, USA).

MCF7 = assay: Cell cycle analysis by flow cytometry, MCF7; settings: 1 μM, up to 72 hours, Control 11.3%
Procedure: as §2

[2] = system: CDK4 knockout HCT116 cells; assay: Sensitivity and cell cycle of CDK4 knockout versus wild-type HCT116
Procedure: CRISPR-Cas9 was employed to stablish HCT116 CDK4 KO cells. Ribonucleotide protein (RNP) delivery system for CRISPR technique was utilized. All the reagents were purchased for Thermoscientific company, USA. gRNA was used to target CDK4 genes. Lipofectamine™ CRISPRMAX™ Cas9 Transfection Reagent was used to transfect the cells with the gRNA and Cas9. The genomic cleavage efficiency was assessed by immunoblotting, while a scrambled gRNA, Trueguide gRNA Negative control, was used as a negative control in all the steps to ensure the specificity of the target. […] To generate isolated clones with complete knockout, the mixed pool of cells was diluted 1 cell/[…] liquid medium and then dispersed into 96 wells plate. The individual cells were left to form clones. […]
The cytotoxic effects of HH32 and HH33 compounds were evaluated at various concentrations ranging from 0.0001 to 100 μM by sulphrhodamine-B (SRB) assay as described previously. The anti-proliferative activity was expressed as growth inhibitory concentration (IC50) values, which were calculated by the sigmoidal dose-response curve fitting method using Graph pad prism 6 software (GraphPad Software, San Diego, CA, USA).
The effect of the HH32 and HH33 compounds on the distribution of cell cycle at different time points (2, 4, 8, 24, 48, and 72 hours) was analyzed using flow cytometry. […]

MCF7 cells [3] = assay: Transcriptomic analysis of HH33-treated MCF7 cells; settings: confirmed by quantitative RT-PCR
A549 cells = assay: Transcriptomic analysis of HH33-treated A549 cells
Procedure: as §1

[4] = H33-treated vs DMSO-treated, DNA repair pathways
[5] = A549, H33-treated vs DMSO-treated, DNA repair pathways
[6] = H33-treated A549 cells/DMSO-treated A549 cells, Apoptosis
[7] = H33-treated A549 cells/DMSO-treated A549 cells, Cell Cycle
[8] = H33-treated A549 cells/DMSO-treated A549 cells, Transcriptional Regulation by TP53

COC(=O)c1cc(NC2=NC(=O)C(=Cc3ccc(N(C)C)cc3)S2)ccc1OC(C)=O [HH33, Methyl 2-acetoxy-5-[(5-(4-dimethylaminobenzylidene)-4 (H)-oxo-1,3-thiazol-2-yl)-amino]benzoate]
Fold change (H_Mean/D_Mean) CDC45 (MCF7 cells [1]; [4]): 0.1426
Fold change (H_Mean/D_Mean) CHAF1B (MCF7 cells [1]; [4]): 0.5251
Fold change (H_Mean/D_Mean) DDX11 (MCF7 cells [1]; [4]): 0.4961
Fold change (H_Mean/D_Mean) ESCO2 (MCF7 cells [1]; [4]): 0.2719
Fold change (H_Mean/D_Mean) GTF2H2C (MCF7 cells [1]; [4]): 0.2907
Fold change (H_Mean/D_Mean) MCM6 (MCF7 cells [1]; [4]): 0.4195
Fold change (H_Mean/D_Mean) MMS22L (MCF7 cells [1]; [4]): 0.2144
Fold change (H_Mean/D_Mean) PIAS4 (MCF7 cells [1]; [4]): 0.6961
Fold change (H_Mean/D_Mean) POLA1 (MCF7 cells [1]; [4]): 0.196
Fold change (H_Mean/D_Mean) RAD17 (MCF7 cells [1]; [4]): 0.3003
Fold change (H_Mean/D_Mean) RAD51 (MCF7 cells [1]; [4]): 0.2505
Fold change (H_Mean/D_Mean) RAD51AP1 (MCF7 cells [1]; [4]): 0.2877
Fold change (H_Mean/D_Mean) RECQL (MCF7 cells [1]; [4]): 0.212
Fold change (H_Mean/D_Mean) RIF1 (MCF7 cells [1]; [4]): 0.3166
Fold change (H_Mean/D_Mean) RNF111 (MCF7 cells [1]; [4]): 0.5331
Fold change (H_Mean/D_Mean) RNF168 (MCF7 cells [1]; [4]): 0.2605
Fold change (H_Mean/D_Mean) TRIP13 (MCF7 cells [1]; [4]): 0.4436
Fold change (H_Mean/D_Mean) UBE2N (MCF7 cells [1]; [4]): 0.3688
Fold change (H_Mean/D_Mean) UBE2W (MCF7 cells [1]; [4]): 0.224
Fold change (H_Mean/D_Mean) ZSWIM7 (MCF7 cells [1]; [4]): 0.3144
pathways related to DNA repair and cell cycle progression (MCF7 cells [1]; hypergeometric test): down-regulation
G2/M phase accumulation (HeLa cells): 93.9%
G2/M cell cycle arrest (MCF7): 57.7%
sensitivity and cell cycle distribution, wild-type versus CDK4 knockout cells [2]: no difference
six shared genes (ATAD2, CDCA3, FAMIIIB, CDKN3, HISTIH2AH, MIS18BP1) (MCF7 cells [3]): maximally downregulated
Fold change (H_Mean/D_Mean) CLSPN (A549 cells; A549, H33-treated vs DMSO-treated, DNA repair / cell cycle): 0.01798
Fold change (H_Mean/D_Mean) BARD1 (A549 cells; A549, H33-treated vs DMSO-treated, DNA repair / cell cycle / TP53 regulation): 0.0451
Fold change (H_Mean/D_Mean) ACTR8 (A549 cells; [5]): 0.01139
Fold change (H_Mean/D_Mean) CHEK2 (A549 cells; [5]): 0.05943
Fold change (H_Mean/D_Mean) EYA3 (A549 cells; [5]): 0.02596
six shared genes (ATAD2, CDCA3, FAMIIIB, CDKN3, HISTIH2AH, MIS18BP1) (A549 cells; A549, confirmed by quantitative RT-PCR): maximally downregulated
apoptotic signaling pathway (A549 cells; A549, hypergeometric test): upregulation
cell cycle progression pathway (A549 cells; A549, hypergeometric test): down-regulation
Fold change BECN1 (A549 cells; [6]): 186.7500
Fold change CRIP1 (A549 cells; [6]): 199.5714
Fold change TGFB1 (A549 cells; [6]): 100.8000
Fold change TNFRSF10C (A549 cells; [6]): 802.5000
Fold change YWHAH (A549 cells; [6]): 168.8804
Fold change CDC14A (A549 cells; [7]): 0.01425
Fold change CEP78 (A549 cells; [7]): 0.01614
Fold change ODF2 (A549 cells; [7]): 0.005902
Fold change CCNE1 (A549 cells; [8]): 0.02093
Fold change CDK9 (A549 cells; [8]): 0.02262
Fold change COX16 (A549 cells; [8]): 0.04666
Fold change CSNK2A2 (A549 cells; [8]): 0.05877
